Series [1] in a line: Pharmacokinetic test in rat. The class given is in vivo. The settings on record: PO 10 mg/kg. The procedure: A certain amount of sample was weighed and dissolved in deionized water to prepare 1 mg/mL of solution. Male SD rats were used as test animals. The dose of single intravenous (IV) injection was 2 mg/kg, and the dose of oral (PO) administration was 10 mg/kg. Each group had three rats. The rats in oral group were fasted for 10-14 hours before administration, and were fed 4 hours after administration. Blood collection time points of animals were before administration, and 5 min, 15 min, 30 min, 1 h, 2 h, 4 h, 6 h, 8 h, and 24 h after administration for intravenous administration; before administration, and 15 min, 30 min, 1 h, 2 h, 4 h, 6 h, 8 h and 24 h after administration for oral administration. About 0.25 mL of blood was collected via the jugular vein from each animal, and heparin sodium was used for anticoagulation. After collecting the blood samples, the blood samples were placed on ice and centrifuged to separate the plasma (centrifugation conditions: 8000 rpm, 6 min, 4° C.). The collected plasma was stored at −80° C. before analysis. 50 μL of plasma sample was taken into 1.5 mL centrifuge tube, 250 μL of internal standard solution was added, and the same volume of methanol rather than internal standard solution was added in the blank group. […]

Series [2] addresses T1, TRPM8 (Homo sapiens, UniProt Q7Z2W7).
T1 construct: expressed in transfected cells
In words: Manual patch clamp detection on TRPM8 channel. The class given is cell-based. The procedure:
TRPM8 cells were cultured in a cell culture dish with a diameter of 35 mm, placed in an incubator in 5% CO2 at 37° C., and passaged at a ratio of 1:5 every 48 hours. The formula of medium was 90% DMEM (Invitrogen), 10% fetal bovine serum (Gibco), 2 mM L-glutamine, 50 μg/mL Hygromycin B (Invitrogen) and 5 μg/mL Blasticidine HCl (Invitrogen). Before electrophysiological patch clamp experiment, the cell culture medium was replaced with medium containing 1 μg/mL doxycycline for at least 16 hours to induce TRPM8 expression.
On the day of the experiment, the cell culture medium was aspirated, the cell were rinsed once with extracellular fluid, and then 0.25% Trypsin-EDTA (Invitrogen) solution was added, and digested at room temperature for 1-2 minutes. The digestion solution was aspirated, the cell were resuspended with extracellular fluid, and transferred to the experimental dish for electrophysiological recording for further experiment.
Preparation of menthol: 100.00 mM of DMSO stock solution of menthol was added to the extracellular solution, diluting 1000-fold to 100.00 μM of menthol solution.
Preparation of AMTB: 5 μL of DMSO stock solution (20.00 mM) of AMTB was added to 4995 μL of menthol solution (100.00 uM), diluting 1000-fold to obtain the final concentration of 20.00 μM AMTB to be tested.
Preparation of IC-1: 20.00 mM or 10.00 mM of stock solution of IC-1 was taken and added to the agonist solution of the corresponding channel, diluting 1000 or 2000-fold to the final concentration of 10.00 μM of […] solution to be tested.
HEK293 cells stably expressing TRP channels, the corresponding agonist-induced channel current was recorded by whole-cell patch clamp technique at room temperature. […] Clamp voltages and data recording were controlled and recorded by a computer using pClamp 11 software with the sampling frequency of 10 kHz and the filtering frequency of 2 kHz. […] After the current was evoked for more than 40 s and no attenuation was determined, the dosing process started. […]
A general note: In patch-clamp work, channel activity is measured electrically.

pIC50: −log10 of the molar value.

For orientation: Tmax means the time at which the peak concentration occurs. In general, inhibition refers to the share of the control response that was lost under treatment. Usually pIC50 stands for the negative decadic logarithm of the IC50, by convention in mol/L.

T1 sequence (Q7Z2W7 whole entry, species assumed): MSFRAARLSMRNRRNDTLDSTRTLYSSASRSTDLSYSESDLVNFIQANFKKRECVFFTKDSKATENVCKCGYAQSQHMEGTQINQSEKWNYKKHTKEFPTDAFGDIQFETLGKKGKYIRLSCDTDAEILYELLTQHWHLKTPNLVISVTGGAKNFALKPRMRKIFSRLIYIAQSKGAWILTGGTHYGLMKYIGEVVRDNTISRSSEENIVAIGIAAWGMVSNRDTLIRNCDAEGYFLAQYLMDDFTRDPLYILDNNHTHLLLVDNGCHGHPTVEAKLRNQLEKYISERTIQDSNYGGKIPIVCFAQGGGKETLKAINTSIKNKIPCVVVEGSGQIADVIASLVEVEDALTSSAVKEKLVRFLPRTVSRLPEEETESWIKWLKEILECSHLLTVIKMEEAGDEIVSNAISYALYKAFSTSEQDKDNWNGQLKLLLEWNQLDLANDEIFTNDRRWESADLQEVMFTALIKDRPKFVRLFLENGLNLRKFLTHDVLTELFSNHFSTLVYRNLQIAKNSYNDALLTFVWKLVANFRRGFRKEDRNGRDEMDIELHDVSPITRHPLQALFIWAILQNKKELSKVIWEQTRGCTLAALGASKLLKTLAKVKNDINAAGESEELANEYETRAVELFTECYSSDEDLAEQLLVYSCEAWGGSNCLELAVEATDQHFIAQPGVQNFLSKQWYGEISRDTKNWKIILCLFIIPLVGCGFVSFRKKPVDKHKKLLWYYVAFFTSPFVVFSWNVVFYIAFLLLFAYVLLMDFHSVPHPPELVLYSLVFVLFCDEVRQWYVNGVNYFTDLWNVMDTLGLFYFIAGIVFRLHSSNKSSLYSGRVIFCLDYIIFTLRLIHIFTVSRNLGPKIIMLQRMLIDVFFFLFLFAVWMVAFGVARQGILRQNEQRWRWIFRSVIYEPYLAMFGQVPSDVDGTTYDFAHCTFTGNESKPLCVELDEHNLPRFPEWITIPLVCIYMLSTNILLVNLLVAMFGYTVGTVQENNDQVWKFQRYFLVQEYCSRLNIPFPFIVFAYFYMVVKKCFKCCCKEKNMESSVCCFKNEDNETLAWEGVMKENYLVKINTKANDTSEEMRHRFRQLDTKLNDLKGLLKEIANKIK

`CNCC[C@H](Oc1cccc2ccccc12)c1cccs1` [Duloxetine (S configuration), Duloxetine, reference compound]: the “Tmax” value in series [1] turned out to be 50 min. Regarding `CNCC[C@H](Oc1cccc2ccoc12)c1cccs1` [IC-1, (S)-3-(Benzofuran-7-yloxy)-N-methyl-3-(thiophen-2-yl)propan-1-amine], the inhibition at 10 µM in series [2] (10.00 μM, HEK293, menthol-induced current) stood at 41.1%. Also, in series [2] (read-out: IC50 of the compound to TRPM8), the pIC50 was below 5.00.

The values above are taken from US12492195B2, “Preparation method for and crystal form of 3-aryloxy-3-five-membered heteroaryl-propylamine compound” (Zhangzhou Pien Tze Huang Pharmaceutical Co., Ltd., priority 2020, dated 2025).
